# Experimental data as given in PubChem BioAssay (NCI).
# “And” between values parts separate entries of the source, which are not always exact repeats. Identical values can stand only once.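 48-hour exposure; five concentrations; linearly interpolated endpoints. At the GI50, growth is halved. TGI: concentration producing complete growth inhibition.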
# Legend:
# Assay in all cases: NCI-60 cell line screen, 48 h
# [1] = tested on: HCT-116 colon
# [2] = tested on: HS 578T breast
# [3] = tested on: MDA-MB-231 breast
# [4] = tested on: MDA-MB-435
# [5] = tested on: NCI-H226 lung
# [6] = tested on: OVCAR-5 ovarian
# [7] = tested on: SF-539 CNS
# [8] = tested on: SK-MEL-5 melanoma
# [9] = tested on: UACC-257 melanoma
# [10] = tested on: HOP-62 NSCLC
SMILES,GI50 [1],TGI [1],TGI [2],GI50 [3],TGI [3],TGI [4],GI50 [5],TGI [5],GI50 [6],TGI [6],GI50 [7],TGI [7],GI50 [8],TGI [8],TGI [9],TGI [10],GI50 [10],GI50 [2],GI50 [4],GI50 [9]
CNCCN=c1ccc2c3c1c(O)c1c(O)ccc(=O)c1c3[nH]n2CCNCCO,0.207 µM,4.9 µM and 5.37 µM,1.41 µM,0.97 µM and 0.504 µM,5.45 µM and 9.63 µM,3.32 µM,0.000924 µM,0.336 µM,0.9 µM,3.36 µM and 11.5 µM,0.0576 µM,1.32 µM,0.0847 µM and 0.139 µM,0.962 µM and 2.06 µM,7 µM,–,–,–,–,–
CC(C)=CC(=O)Cc1nc2ccc([N+](=O)[O-])cc2[nH]c1=O,–,> 100 µM,–,–,–,–,–,> 100 µM,–,> 100 µM,–,> 100 µM,–,> 100 µM,> 100 µM,> 100 µM,–,–,–,–
CCCCCn1c(C)cc(/C=C\c2ccc3cc(C)ccc3[n+]2C)c1C,0.0343 µM,1.09 µM,1.75 µM,0.329 µM,1.71 µM,1.09 µM,–,–,0.313 µM,1.41 µM,0.241 µM,1.06 µM,0.0801 µM,0.219 µM,1.45 µM,0.98 µM,0.283 µM,0.166 µM,0.116 µM,0.367 µM
COc1cc2c3c(n(C)c(=O)c2cc1OC)-c1cc2c(cc1/C3=C\CCNCCCN)OCO2,1.49 µM,3.39 µM,9.52 µM,0.58 µM,3.05 µM,15.9 µM,0.987 µM,5.02 µM,3.04 µM,13.4 µM,1.65 µM,9.95 µM,–,–,39.7 µM,15.6 µM,3.85 µM,2.84 µM,2.48 µM,–
O=Nc1c(-c2c(O)[nH]c3ccc(Br)cc23)[nH]c2ccccc12,–,–,10.2 µM,3.55 µM,21.8 µM,> 100 µM,3.89 µM,16.7 µM,5.14 µM,16.9 µM,2.62 µM,7.47 µM,1.24 µM,2.53 µM,> 100 µM,13.8 µM,4.4 µM,3.03 µM,5.47 µM,15 µM
O=C1OCC2=C1C(c1ccccc1)c1cc3c(cc1N2CCO)OCCO3 (stereo not drawn),0.226 µM,> 18.7 µM,10.8 µM,1.14 µM,11.5 µM,0.32 µM,10.8 µM,> 50 µM,2.12 µM,> 50 µM,0.298 µM,–,0.181 µM,7.18 µM,–,> 50 µM,0.763 µM,0.206 µM,0.113 µM,–
CCN(CC)c1ccc(/C=C/C=C2\NC(=O)NC2=O)cc1,1.6 µM,30.6 µM,42.6 µM,10.5 µM,> 100 µM,–,15 µM,> 100 µM,11.1 µM,98.4 µM,2.33 µM,8.6 µM,1.17 µM,13.7 µM,–,> 100 µM,3.64 µM,3.91 µM,–,–
COc1cc(-c2csc(NC(=O)Nc3cc(Cl)cc(Cl)c3)n2)cc(OC)c1OC,1.6 µM,2.97 µM,4.91 µM,1.92 µM,4.12 µM,3.96 µM,1.96 µM,4.38 µM,2.25 µM,6.16 µM,1.99 µM,4.7 µM,3.15 µM,11.2 µM,8.81 µM,–,–,1.94 µM,1.9 µM,2.98 µM
COc1ccccc1C(=O)N(C)c1ccc(Cl)c(C(=O)OC(C)C)c1,–,> 100 µM,> 100 µM,–,> 100 µM,> 100 µM,–,> 100 µM,–,> 100 µM,–,> 100 µM,–,58.3 µM,> 100 µM,–,–,–,–,–
CC(=O)c1nc2ccccc2n1CC(=O)c1cccc(Cl)c1,0.401 µM,> 100 µM,–,1.07 µM,> 100 µM,–,3.39 µM,> 44.2 µM,3.42 µM,> 71.4 µM,0.33 µM,2.25 µM,0.175 µM,13.6 µM,> 100 µM,> 56.5 µM,1.69 µM,–,–,1.69 µM
O=C(O)/C(=C\c1ccncc1)c1cccc2ccccc12,–,> 100 µM,> 100 µM,–,> 100 µM,> 100 µM,–,–,–,> 100 µM,–,> 100 µM,–,> 100 µM,30.7 µM,> 100 µM,–,–,–,–
CCc1cccc(C)c1NC(=O)CC1C(=O)Nc2ccccc2S1(=O)=O (stereo not drawn),–,35.4 µM,–,–,–,–,–,> 100 µM,–,56.4 µM,–,24.6 µM,–,44.4 µM,82.7 µM,–,–,–,–,–
CCSc1ccc(C2C(Br)C(=O)N2c2cc(OC)c(OC)c(OC)c2)cc1 (stereo not drawn),0.222 µM,10.6 µM,> 100 µM,0.488 µM,95.3 µM,–,3.11 µM,43.5 µM,0.431 µM,15.8 µM,0.161 µM,0.61 µM,0.0861 µM,2.84 µM,> 100 µM,> 100 µM,0.336 µM,0.229 µM,–,14.3 µM
CC(=O)[CH-]C(C)=O.CC(=O)[CH-]C(C)=O.CC[O-].CC[O-].[Ti+4],–,–,–,–,–,–,> 100 µM,> 100 µM,> 100 µM,> 100 µM,> 100 µM,> 100 µM,> 100 µM,> 100 µM,> 100 µM,> 100 µM,> 100 µM,–,–,> 100 µM
N.N.O=P([O-])([O-])C1(P(=O)([O-])[O-])CCCCCN1.[Pt+2],> 100 µM,> 100 µM,–,–,–,–,> 100 µM,> 100 µM,–,–,31.9 µM,> 100 µM,> 100 µM,> 100 µM,> 100 µM,> 100 µM,> 100 µM,–,–,> 100 µM
